The experiment has as its system P388 leukemia ip, CD2F1 mice, survival T/C. In words: NCI In Vivo Anticancer Drug Screen. Data for tumor model P388 Leukemia (intraperitoneal) in CD2F1 (CDF1) mice. To be noted: endpoint: median survival time, higher = longer survival. The gist of the method: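 Mice carrying the transplanted tumor received test compound or vehicle. Survival was recorded in each group, and the value is the treated-group measurement divided by that of the vehicle-treated control group.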

Setting [1] is: dose: 50.0 mg/kg/injection, schedule: Q01DX009 (ip), vehicle: saline with Tween-80.
Where [2] appears, read: dose: 100.0 mg/kg/injection, schedule: Q01DX009 (ip), vehicle: saline with Tween-80.
[3] abbreviates: dose: 200.0 mg/kg/injection, schedule: Q01DX009 (ip), vehicle: saline with Tween-80.
Setting [4] is: dose: 60.0 mg/kg/injection, schedule: Q01DX005 (ip), vehicle: Klucel (hydroxypropylcellulose) (HPC).
The mark [5] stands for this setting: dose: 120.0 mg/kg/injection, schedule: Q01DX005 (ip), vehicle: Klucel (hydroxypropylcellulose) (HPC).
Setting [6] is: dose: 240.0 mg/kg/injection, schedule: Q01DX005 (ip), vehicle: Klucel (hydroxypropylcellulose) (HPC).
The mark [7] stands for this setting: dose: 100.0 mg/kg/injection, schedule: Q01DX001 (ip), vehicle: saline with Tween-80.
Where [8] appears, read: dose: 200.0 mg/kg/injection, schedule: Q01DX001 (ip), vehicle: saline with Tween-80.

SMILES strings stand for the structures. Toxic doses and inconclusive results are not listed.

With `O=[N+]([O-])c1cn(CCCNc2c3ccccc3nc3ccccc23)cn1`, the T/C (dose: 60.0 mg/kg/injection, schedule: Q01DX005 (ip), vehicle: saline with Tween-80) was 95 % of control; the T/C (dose: 120.0 mg/kg/injection, schedule: Q01DX005 (ip), vehicle: saline with Tween-80) was 107 % of control; the T/C (dose: 240.0 mg/kg/injection, schedule: Q01DX005 (ip), vehicle: saline with Tween-80) is 112 % of control.
On to `CCC(C)C(=O)/C=C/c1ccc(Cl)c(Cl)c1` (stereo not drawn), for which the T/C under setting [1] was 99 % of control, the T/C under setting [2] was 99 % of control and the T/C under setting [3] was 99 % of control.
Turning to `O=C(O)/C=C/c1c2ccc(=O)cc-2oc2cc(O)ccc12`, the T/C was 103 % of control under setting [4], 103 % of control under setting [5] and 91 % of control under setting [6].
As for `c1ccc2c(NCCCCNc3c4ccccc4nc4ccccc34)c3ccccc3nc2c1`, the T/C (dose: 0.62 mg/kg/injection, schedule: Q## X009 (ip), vehicle: lactic acid) is 101 % of control; the T/C (dose: 1.25 mg/kg/injection, schedule: Q## X009 (ip), vehicle: lactic acid) was 102 % of control; the T/C (dose: 2.5 mg/kg/injection, schedule: Q## X009 (ip), vehicle: lactic acid) is 104 % of control; the T/C (dose: 5.0 mg/kg/injection, schedule: Q## X009 (ip), vehicle: lactic acid) is 104 % of control; the T/C (dose: 10.0 mg/kg/injection, schedule: Q## X009 (ip), vehicle: lactic acid) was 110 % of control.
Regarding `CCCCCCCC/C=C\CCCCCCCC(=O)OCCN(CCOC(=O)CCCCCCC/C=C/CCCCCCCC)C(=O)COC(=O)CCCCCCC/C=C\CCCCCCCC`, the T/C runs as follows: under setting [1], 104 % of control; under setting [2], 104 % of control; under setting [3], 104 % of control.
Turning to `CCN(CC)CCOC(=O)C(OCCCc1ccccc1)(c1ccccc1)c1ccccc1`, the T/C reads like this: (dose: 50.0 mg/kg/injection, schedule: Q01DX005 (ip), vehicle: Klucel (hydroxypropylcellulose) (HPC)) 111 % of control; (dose: 100.0 mg/kg/injection, schedule: Q01DX005 (ip), vehicle: Klucel (hydroxypropylcellulose) (HPC)) 112 % of control.
As to `CCCCCCCCCCCC(=O)N(CCOC(=O)c1ccccc1)CCOC(=O)c1ccccc1`, the T/C is 101 % of control under setting [1], 93 % of control under setting [2] and 107 % of control under setting [3].
Regarding `CCOC(=O)Cc1cc2cc(OCC)ncc2cc1C`, the T/C was 91 % of control (dose: 6.25 mg/kg/injection, schedule: Q01DX009 (ip), vehicle: distilled water + Tween-80); 89 % of control (dose: 12.5 mg/kg/injection, schedule: Q01DX009 (ip), vehicle: distilled water + Tween-80); 103 % of control (dose: 25.0 mg/kg/injection, schedule: Q01DX009 (ip), vehicle: distilled water + Tween-80); 99 % of control (dose: 50.0 mg/kg/injection, schedule: Q01DX009 (ip), vehicle: distilled water + Tween-80); 94 % of control (dose: 100.0 mg/kg/injection, schedule: Q01DX009 (ip), vehicle: distilled water + Tween-80); 109 % of control (dose: 200.0 mg/kg/injection, schedule: Q01DX009 (ip), vehicle: distilled water + Tween-80). In addition, the T/C (dose: 400.0 mg/kg/injection, schedule: Q01DX009 (ip), vehicle: distilled water + Tween-80) is 102 % of control.
Consider `COC(=O)C1C(OS(=O)(=O)O)CCC2CN3CCc4c([nH]c5ccccc45)C3CC21` (stereo not drawn), for which the T/C was 102 % of control under setting [4], 105 % of control under setting [5] and 103 % of control under setting [6].
With `CS(=O)(=O)Nc1ccc(Nc2c3ccccc3nc3cc(N)ccc23)cc1`, the T/C runs as follows: (dose: 1.32 mg/kg/injection, schedule: Q04DX003 (ip), vehicle: saline) 154 % of control; (dose: 1.78 mg/kg/injection, schedule: Q04DX003 (ip), vehicle: saline) 167 % of control; (dose: 2.0 mg/kg/injection, schedule: Q04DX003 (ip), vehicle: saline) 172 % of control; (dose: 2.66 mg/kg/injection, schedule: Q04DX003 (ip), vehicle: saline) 158 % of control; (dose: 2.9 mg/kg/injection, schedule: Q04DX003 (ip), vehicle: saline) 187 % of control; (dose: 3.0 mg/kg/injection, schedule: Q04DX003 (ip), vehicle: saline) 181 % of control. For the same molecule, the T/C is 155 % of control (dose: 4.0 mg/kg/injection, schedule: Q04DX003 (ip), vehicle: saline); 204 % of control (dose: 4.4 mg/kg/injection, schedule: Q04DX003 (ip), vehicle: saline); 163 % of control (dose: 4.5 mg/kg/injection, schedule: Q04DX003 (ip), vehicle: saline); 192 % of control (dose: 6.0 mg/kg/injection, schedule: Q04DX003 (ip), vehicle: saline); 212 % of control (dose: 6.6 mg/kg/injection, schedule: Q04DX003 (ip), vehicle: saline); 112 % of control (dose: 10.0 mg/kg/injection, schedule: Q04DX003 (ip), vehicle: saline).
With `COc1ccc(C(OCC2CC3C=CC2C3)OCC2CC3C=CC2C3)cc1` (stereo not drawn), the T/C is 110 % of control (dose: 12.5 mg/kg/injection, schedule: Q01DX009 (ip), vehicle: other); 111 % of control (dose: 25.0 mg/kg/injection, schedule: Q01DX009 (ip), vehicle: other); 105 % of control (dose: 50.0 mg/kg/injection, schedule: Q01DX009 (ip), vehicle: other); 114 % of control (dose: 100.0 mg/kg/injection, schedule: Q01DX009 (ip), vehicle: other); 114 % of control (dose: 200.0 mg/kg/injection, schedule: Q01DX009 (ip), vehicle: other).
Turning to `COC1/C=C/OC2(C)Oc3c(C)c(O)c4c(c3C2=O)C(=O)C=C(NC(=O)/C(C)=C\C=C\C(C)C2OC(C)(C)OC(C(C)C(=O)C1C)C2C)C4=O` (stereo not drawn), the T/C under setting [7] was 103 % of control; the T/C under setting [8] is 95 % of control; the T/C (dose: 400.0 mg/kg/injection, schedule: Q01DX001 (ip), vehicle: saline with Tween-80) was 100 % of control.
With `[C-]#Cc1ccccc1.[C-]#Cc1ccccc1.[Cu+2]`, the T/C by setting is: (dose: 12.5 mg/kg/injection, schedule: Q04DX003 (ip), vehicle: saline with Tween-80) 91 % of control; (dose: 25.0 mg/kg/injection, schedule: Q04DX003 (ip), vehicle: saline with Tween-80) 86 % of control; (dose: 50.0 mg/kg/injection, schedule: Q04DX003 (ip), vehicle: saline with Tween-80) 87 % of control.
For `C=Cn1c([N+](=O)[O-])cnc1/C=C/c1ccc(C(=O)NCCO)cc1`, the T/C is, setting by setting: (dose: 100.0 mg/kg/injection, schedule: Q04DX002 (ip), vehicle: saline with Tween-80) 96 % of control; (dose: 200.0 mg/kg/injection, schedule: Q04DX002 (ip), vehicle: saline with Tween-80) 93 % of control; (dose: 400.0 mg/kg/injection, schedule: Q04DX002 (ip), vehicle: saline with Tween-80) 93 % of control.
For the molecule `NCCCCS(=O)(=O)Nc1ccc(Nc2c3ccccc3nc3cc([N+](=O)[O-])ccc23)cc1`, the T/C reads like this: (dose: 22.0 mg/kg/injection, schedule: Q04DX003 (ip), vehicle: saline) 122 % of control; (dose: 38.9 mg/kg/injection, schedule: Q04DX003 (ip), vehicle: water) 164 % of control; (dose: 50.0 mg/kg/injection, schedule: Q04DX003 (ip), vehicle: saline) 150 % of control; (dose: 64.8 mg/kg/injection, schedule: Q04DX003 (ip), vehicle: water) 180 % of control; (dose: 75.0 mg/kg/injection, schedule: Q04DX003 (ip), vehicle: saline) 150 % of control; (dose: 108.0 mg/kg/injection, schedule: Q04DX003 (ip), vehicle: water) 198 % of control. Besides, the T/C is, setting by setting: (dose: 150.0 mg/kg/injection, schedule: Q04DX003 (ip), vehicle: saline) 172 % of control; (dose: 180.0 mg/kg/injection, schedule: Q04DX003 (ip), vehicle: water) 99 % of control; (dose: 300.0 mg/kg/injection, schedule: Q04DX003 (ip), vehicle: saline) 118 % of control.
With `COCOC(/C=C/C=C/CCCCOCc1ccccc1)CCC/C=C(\C)CO` (stereo not drawn), the T/C by setting is: (dose: 50.0 mg/kg/injection, schedule: Q01DX001 (ip), vehicle: saline with Tween-80) 104 % of control; under setting [7], 102 % of control; under setting [8], 103 % of control.
For `Nc1ccc(/C=C/c2ccc3cccnc3c2)cc1`, the T/C (dose: 12.5 mg/kg/injection, schedule: Q01DX009 (ip), vehicle: DMSO) was 108 % of control; the T/C (dose: 25.0 mg/kg/injection, schedule: Q01DX009 (ip), vehicle: DMSO) is 97 % of control; the T/C (dose: 50.0 mg/kg/injection, schedule: Q01DX009 (ip), vehicle: DMSO) is 101 % of control.

The values above are taken from PubChem BioAssay AID330 (DTP/NCI, 2004).
